Reference: patent US12493040B2, “Cancer detection method using sense of smell of nematode” (HIROTSU BIO SCIENCE INC., priority 2013, dated 2025)

Tested on: RNAi-treated eri-1 (mg366) nematodes
Test: RNAi screening of olfactory receptor genes: chemotaxis assay of RNAi-treated nematodes to odorants
Assay type: in vivo, Caenorhabditis elegans
Protocol: The RNAi assay was carried out by performing an RNAi method involving the feeding (feeding RNAi method) of eri-1 (mg366) (19), using an Ahringer library (37).
Nine adult eri-1 mutants were placed on an NGM plate containing isopropyl 1-D-1-thiogalactopyranoside (0.19 g/L), ampicillin (60 mg/L), and Escherichia coli (E. coli), and were then cultured for 4 days. Subsequently, the adult worms were used in a chemotaxis assay. The chemotaxis assay was carried out as previously reported (6, 17). In the chemotaxis assay, the present inventor has used 30 to 50 worms in each experiment in which 1 μl of 10^−3- or 10^−4-diluted odorant (low concentration), or 1 and 5 μl of undiluted odorants (high concentration) were used.
The z score and a control value in each single test from 2SD were calculated in all days (Table 3) or every day. The z score was used as a threshold indicating a great difference (−1.96 and 1.96, P<0.05). […] Accordingly, the present inventor has used the z score±1 (−0.96 and 0.96, P<0.33) as a weaker threshold.

[1] = Control nematodes, repellent or high concentration of attractant
[2] = srh-4 RNAi-treated nematodes, repellent or high concentration of attractant
[3] = srh-7 RNAi-treated nematodes, repellent or high concentration of attractant
[4] = srh-8 RNAi-treated nematodes, repellent or high concentration of attractant
[5] = srh-10 RNAi-treated nematodes, repellent or high concentration of attractant
[6] = srh-11 RNAi-treated nematodes, repellent or high concentration of attractant
[7] = srh-15 RNAi-treated nematodes, repellent or high concentration of attractant
[8] = srh-16 RNAi-treated nematodes, repellent or high concentration of attractant
[9] = srh-18 RNAi-treated nematodes, repellent or high concentration of attractant
[10] = srh-19 RNAi-treated nematodes, repellent or high concentration of attractant
[11] = srh-22 RNAi-treated nematodes, repellent or high concentration of attractant
[12] = srh-23 RNAi-treated nematodes, repellent or high concentration of attractant
[13] = srh-24 RNAi-treated nematodes, repellent or high concentration of attractant
[14] = srh-25 RNAi-treated nematodes, repellent or high concentration of attractant
[15] = srh-27 RNAi-treated nematodes, repellent or high concentration of attractant
[16] = srh-28 RNAi-treated nematodes, repellent or high concentration of attractant
[17] = srh-36 RNAi-treated nematodes, repellent or high concentration of attractant
[18] = srh-37 RNAi-treated nematodes, repellent or high concentration of attractant
[19] = srh-39 RNAi-treated nematodes, repellent or high concentration of attractant
[20] = srh-40 RNAi-treated nematodes, repellent or high concentration of attractant
[21] = srh-41 RNAi-treated nematodes, repellent or high concentration of attractant
[22] = srh-44 RNAi-treated nematodes, repellent or high concentration of attractant
[23] = srh-45 RNAi-treated nematodes, repellent or high concentration of attractant
[24] = srh-46 RNAi-treated nematodes, repellent or high concentration of attractant
[25] = srh-48 RNAi-treated nematodes, repellent or high concentration of attractant
[26] = srh-49 RNAi-treated nematodes, repellent or high concentration of attractant
[27] = srh-50 RNAi-treated nematodes, repellent or high concentration of attractant
[28] = srh-51 RNAi-treated nematodes, repellent or high concentration of attractant
[29] = srh-52 RNAi-treated nematodes, repellent or high concentration of attractant
[30] = srh-55 RNAi-treated nematodes, repellent or high concentration of attractant
[31] = srh-59 RNAi-treated nematodes, repellent or high concentration of attractant
[32] = srh-60 RNAi-treated nematodes, repellent or high concentration of attractant
[33] = srh-61 RNAi-treated nematodes, repellent or high concentration of attractant
[34] = srh-67 RNAi-treated nematodes, repellent or high concentration of attractant
[35] = srh-68 RNAi-treated nematodes, repellent or high concentration of attractant
[36] = srh-69 RNAi-treated nematodes, repellent or high concentration of attractant
[37] = srh-70 RNAi-treated nematodes, repellent or high concentration of attractant
[38] = srh-71 RNAi-treated nematodes, repellent or high concentration of attractant
[39] = srh-72 RNAi-treated nematodes, repellent or high concentration of attractant
[40] = srh-74 RNAi-treated nematodes, repellent or high concentration of attractant
[41] = srh-75 RNAi-treated nematodes, repellent or high concentration of attractant
[42] = srh-77 RNAi-treated nematodes, repellent or high concentration of attractant
[43] = srh-79 RNAi-treated nematodes, repellent or high concentration of attractant
[44] = srh-80 RNAi-treated nematodes, repellent or high concentration of attractant
[45] = srh-82 RNAi-treated nematodes, repellent or high concentration of attractant
[46] = srh-83 RNAi-treated nematodes, repellent or high concentration of attractant
[47] = srh-97 RNAi-treated nematodes, repellent or high concentration of attractant
[48] = srh-99 RNAi-treated nematodes, repellent or high concentration of attractant
[49] = srh-100 RNAi-treated nematodes, repellent or high concentration of attractant
[50] = srh-104 RNAi-treated nematodes, repellent or high concentration of attractant
[51] = srh-105 RNAi-treated nematodes, repellent or high concentration of attractant
[52] = srh-109 RNAi-treated nematodes, repellent or high concentration of attractant
[53] = srh-111 RNAi-treated nematodes, repellent or high concentration of attractant

## O=Cc1ccccc1 [High Bz]
[1]
  chemotaxis index: −0.91 ± 0.007
[2]
  chemotaxis index: −0.75
[3]
  chemotaxis index: −1.00
[4]
  chemotaxis index: −0.93
[5]
  chemotaxis index: −0.95
[6]
  chemotaxis index: −0.78
[7]
  chemotaxis index: −0.41
[8]
  chemotaxis index: −0.88
[9]
  chemotaxis index: −0.88
[10]
  chemotaxis index: −1.00
[11]
  chemotaxis index: −0.80
[12]
  chemotaxis index: −0.88
[13]
  chemotaxis index: −1.00
[14]
  chemotaxis index: −0.73
[15]
  chemotaxis index: 0.96
[16]
  chemotaxis index: −0.75
[17]
  chemotaxis index: −0.95
[18]
  chemotaxis index: −1.00
[19]
  chemotaxis index: −0.84
[20]
  chemotaxis index: −0.87
[21]
  chemotaxis index: −0.89
[22]
  chemotaxis index: −0.48
[23]
  chemotaxis index: −0.96
[24]
  chemotaxis index: −0.82
[25]
  chemotaxis index: −0.80
[26]
  chemotaxis index: −0.76
[27]
  chemotaxis index: −1.00
[28]
  chemotaxis index: −0.96
[29]
  chemotaxis index: −1.00
[30]
  chemotaxis index: −0.98
[31]
  chemotaxis index: −0.91
[32]
  chemotaxis index: −0.98
[33]
  chemotaxis index: −0.92
[34]
  chemotaxis index: −0.97
[35]
  chemotaxis index: −0.87
[36]
  chemotaxis index: −0.87
[37]
  chemotaxis index: −0.94
[38]
  chemotaxis index: −0.91
[39]
  chemotaxis index: −0.98
[40]
  chemotaxis index: −0.95
[41]
  chemotaxis index: −0.94
[42]
  chemotaxis index: −0.89
[43]
  chemotaxis index: −0.80
[44]
  chemotaxis index: −0.87
[45]
  chemotaxis index: −0.88
[46]
  chemotaxis index: −0.45
[47]
  chemotaxis index: −0.86
[48]
  chemotaxis index: −0.74
[49]
  chemotaxis index: −0.94
[50]
  chemotaxis index: −0.91
[51]
  chemotaxis index: −0.96
[52]
  chemotaxis index: −0.87
[53]
  chemotaxis index: −0.79

## CC(C)CCO [High Iaa]
[1]
  chemotaxis index: −0.84 ± 0.011
[2]
  chemotaxis index: −0.73
[3]
  chemotaxis index: −0.86
[4]
  chemotaxis index: −0.94
[5]
  chemotaxis index: −0.96
[6]
  chemotaxis index: −0.79
[7]
  chemotaxis index: −0.60
[8]
  chemotaxis index: −0.74
[9]
  chemotaxis index: −0.78
[10]
  chemotaxis index: −0.89
[11]
  chemotaxis index: −0.81
[12]
  chemotaxis index: −0.88
[13]
  chemotaxis index: −1.00
[14]
  chemotaxis index: 0.13
[15]
  chemotaxis index: −0.92
[16]
  chemotaxis index: −0.64
[17]
  chemotaxis index: −0.59
[18]
  chemotaxis index: −0.69
[19]
  chemotaxis index: −0.79
[20]
  chemotaxis index: −0.88
[21]
  chemotaxis index: −0.56
[22]
  chemotaxis index: 0.00
[23]
  chemotaxis index: −0.97
[24]
  chemotaxis index: −0.91
[25]
  chemotaxis index: −0.67
[26]
  chemotaxis index: −0.59
[27]
  chemotaxis index: −0.93
[28]
  chemotaxis index: −0.85
[29]
  chemotaxis index: −0.96
[30]
  chemotaxis index: −0.95
[31]
  chemotaxis index: −0.87
[32]
  chemotaxis index: −0.77
[33]
  chemotaxis index: −0.82
[34]
  chemotaxis index: −0.96
[35]
  chemotaxis index: −0.67
[36]
  chemotaxis index: −0.94
[37]
  chemotaxis index: −0.40
[38]
  chemotaxis index: −0.76
[39]
  chemotaxis index: −0.55
[40]
  chemotaxis index: −0.51
[41]
  chemotaxis index: −0.50
[42]
  chemotaxis index: −0.68
[43]
  chemotaxis index: −0.22
[44]
  chemotaxis index: −0.31
[45]
  chemotaxis index: −0.53
[46]
  chemotaxis index: 0.34
[47]
  chemotaxis index: −0.51
[48]
  chemotaxis index: −0.33
[49]
  chemotaxis index: −0.64
[50]
  chemotaxis index: −0.48
[51]
  chemotaxis index: −0.76
[52]
  chemotaxis index: −0.68
[53]
  chemotaxis index: −0.08

## O=Cc1ccccc1 [benzaldehyde]
srh-10 RNAi-treated nematodes, low concentration of attractant
  chemotaxis index: 0.12
srh-11 RNAi-treated nematodes, low concentration of attractant
  chemotaxis index: −0.11
srh-15 RNAi-treated nematodes, low concentration of attractant
  chemotaxis index: −0.13
srh-16 RNAi-treated nematodes, low concentration of attractant
  chemotaxis index: 0.83
srh-18 RNAi-treated nematodes, low concentration of attractant
  chemotaxis index: 0.05
srh-19 RNAi-treated nematodes, low concentration of attractant
  chemotaxis index: 0.64
srh-22 RNAi-treated nematodes, low concentration of attractant
  chemotaxis index: 0.28
srh-23 RNAi-treated nematodes, low concentration of attractant
  chemotaxis index: 0.54
srh-24 RNAi-treated nematodes, low concentration of attractant
  chemotaxis index: 0.69
srh-214 RNAi-treated nematodes, low concentration of attractant
  chemotaxis index: 0.57
srh-216 RNAi-treated nematodes, low concentration of attractant
  chemotaxis index: 0.47
srh-217 RNAi-treated nematodes, low concentration of attractant
  chemotaxis index: 0.76
srh-220 RNAi-treated nematodes, low concentration of attractant
  chemotaxis index: 0.61
srh-222 RNAi-treated nematodes, low concentration of attractant
  chemotaxis index: 0.76
srh-223 RNAi-treated nematodes, low concentration of attractant
  chemotaxis index: 0.49
srh-227 RNAi-treated nematodes, low concentration of attractant
  chemotaxis index: 0.56
srh-229 RNAi-treated nematodes, low concentration of attractant
  chemotaxis index: −0.21
srh-233 RNAi-treated nematodes, low concentration of attractant
  chemotaxis index: −0.11
srh-235 RNAi-treated nematodes, low concentration of attractant
  chemotaxis index: 0.32
srh-236 RNAi-treated nematodes, low concentration of attractant
  chemotaxis index: 0.31
srh-239 RNAi-treated nematodes, low concentration of attractant
  chemotaxis index: 0.34
srh-241 RNAi-treated nematodes, low concentration of attractant
  chemotaxis index: 0.66
srh-243 RNAi-treated nematodes, low concentration of attractant
  chemotaxis index: 0.30
srh-244 RNAi-treated nematodes, low concentration of attractant
  chemotaxis index: 0.43
srh-247 RNAi-treated nematodes, low concentration of attractant
  chemotaxis index: 0.40
srh-250 RNAi-treated nematodes, low concentration of attractant
  chemotaxis index: 0.40
srh-251 RNAi-treated nematodes, low concentration of attractant
  chemotaxis index: 0.70
srh-252 RNAi-treated nematodes, low concentration of attractant
  chemotaxis index: 0.71
srh-258 RNAi-treated nematodes, low concentration of attractant
  chemotaxis index: 0.40
srh-261 RNAi-treated nematodes, low concentration of attractant
  chemotaxis index: 0.45
srh-264 RNAi-treated nematodes, low concentration of attractant
  chemotaxis index: 0.38
srh-266 RNAi-treated nematodes, low concentration of attractant
  chemotaxis index: 0.32
srh-274 RNAi-treated nematodes, low concentration of attractant
  chemotaxis index: 0.45
srh-275 RNAi-treated nematodes, low concentration of attractant
  chemotaxis index: 0.16
srh-276 RNAi-treated nematodes, low concentration of attractant
  chemotaxis index: 0.56
srh-277 RNAi-treated nematodes, low concentration of attractant
  chemotaxis index: 0.49
srh-279 RNAi-treated nematodes, low concentration of attractant
  chemotaxis index: 0.34
srh-281 RNAi-treated nematodes, low concentration of attractant
  chemotaxis index: 0.33
srh-282 RNAi-treated nematodes, low concentration of attractant
  chemotaxis index: 0.24
srh-283 RNAi-treated nematodes, low concentration of attractant
  chemotaxis index: 0.21
srh-284 RNAi-treated nematodes, low concentration of attractant
  chemotaxis index: 0.29
srh-291 RNAi-treated nematodes, low concentration of attractant
  chemotaxis index: 0.58
srh-292 RNAi-treated nematodes, low concentration of attractant
  chemotaxis index: 0.48
srh-293 RNAi-treated nematodes, low concentration of attractant
  chemotaxis index: 0.31
srh-297 RNAi-treated nematodes, low concentration of attractant
  chemotaxis index: 0.63
srh-298 RNAi-treated nematodes, low concentration of attractant
  chemotaxis index: 0.66
srh-308 RNAi-treated nematodes, low concentration of attractant
  chemotaxis index: 0.14
